Results taken from ChEMBL document CHEMBL3880435, “Compounds and compositions as protein kinase inhibitors” (2013).

Legend:
[1] = target: Serine/threonine-protein kinase B-raf (Homo sapiens, UniProt P15056, V600E); experiment: Inhibition of B-Raf V600E mutant (unknown origin) using biotinylated Mek substrate incubated for 60 mins by amplified luminescence proximity homogeneous assay
[2] = Antitumor activity against human A375 cells xenografted in Nu/Nu mouse assessed as tumor volume level at 1 mg/kg, dosed BID for 14 days commencing on day 19 measured after 14 days post-first dose relative to initial tumor volume; format: functional, A-375
[3] = Antitumor activity against human A375 cells xenografted in Nu/Nu mouse assessed as tumor volume level at 3 mg/kg, dosed BID for 14 days commencing on day 19 measured after 14 days post-first dose relative to initial tumor volume; format: functional, A-375
[4] = Antitumor activity against human A375 cells xenografted in Nu/Nu mouse assessed as tumor volume level at 10 mg/kg, dosed BID for 14 days commencing on day 19 measured after 14 days post-first dose relative to initial tumor volume; format: functional, A-375
[5] = Antitumor activity against human A375 cells xenografted in Nu/Nu mouse assessed as tumor volume level at 20 mg/kg, dosed BID for 14 days commencing on day 19 measured after 14 days post-first dose relative to initial tumor volume; format: functional, A-375
[6] = Hepatic extraction ratio in human liver microsomes at 1 uM in presence of NADPH by LC-MS/MS method; format: ADME; conditions: read-out: ERH

Sequence of Serine/threonine-protein kinase B-raf (P15056 2-766 V600E limits assumed): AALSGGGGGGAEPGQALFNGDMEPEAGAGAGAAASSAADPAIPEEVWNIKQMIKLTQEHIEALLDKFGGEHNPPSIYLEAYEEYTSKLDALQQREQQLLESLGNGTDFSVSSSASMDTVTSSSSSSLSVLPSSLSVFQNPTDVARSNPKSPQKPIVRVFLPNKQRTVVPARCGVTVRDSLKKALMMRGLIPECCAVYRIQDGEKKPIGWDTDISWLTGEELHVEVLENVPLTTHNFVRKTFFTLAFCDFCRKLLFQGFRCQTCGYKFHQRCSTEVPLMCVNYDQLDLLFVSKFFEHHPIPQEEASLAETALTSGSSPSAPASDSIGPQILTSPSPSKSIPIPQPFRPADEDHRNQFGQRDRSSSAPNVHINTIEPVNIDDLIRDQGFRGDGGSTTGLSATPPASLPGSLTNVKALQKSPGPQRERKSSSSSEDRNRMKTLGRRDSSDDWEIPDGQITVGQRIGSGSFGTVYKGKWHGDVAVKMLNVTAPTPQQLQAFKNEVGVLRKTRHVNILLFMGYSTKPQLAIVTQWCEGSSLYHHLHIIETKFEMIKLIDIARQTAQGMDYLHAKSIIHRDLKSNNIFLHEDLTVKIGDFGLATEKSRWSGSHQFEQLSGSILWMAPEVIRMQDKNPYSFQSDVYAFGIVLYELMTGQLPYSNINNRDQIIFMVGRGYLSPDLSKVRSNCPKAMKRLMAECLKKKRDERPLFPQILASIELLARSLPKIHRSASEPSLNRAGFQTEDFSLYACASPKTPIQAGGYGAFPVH

COC(=O)N[C@@H](C)CNc1nccc(-c2cn(C(C)C)nc2-c2cc(C)cc(NS(C)(=O)=O)c2F)n1
IC50 [1]: 0.95 nM

COC(=O)N[C@@H](C)CNc1nccc(-c2cn(C(C)C)nc2-c2cc(C)cc(NS(C)(=O)=O)c2Cl)n1
IC50 [1]: 1 nM

COC(=O)N[C@@H](C)CNc1nccc(-c2cn(C(C)C)nc2-c2cc(Cl)cc(NS(C)(=O)=O)c2F)n1 [ENCORAFENIB]
Activity [2]: 20 - 50%
Activity [3]: 20%
Activity [4]: <80%
Activity [5]: <80%

COC(=O)N[C@@H](C)CNc1nccc(-c2cn(C(C)C)nc2-c2cccc(NS(C)(=O)=O)c2F)n1
hepatic extraction ratio at 1 µM [6]: < 0.31
